Consider 1 compound from paper PMC9930429, “Wogonin attenuates the pathogenicity of Streptococcus pneumoniae by double‐target inhibition of Pneumolysin and Sortase A” (Journal of Cellular and Molecular Medicine, 2023).

This assay concerns the target Pneumolysin (PLY) (Streptococcus pneumoniae, UniProt Q04IN8). The experiment in a line: biochemical.

Chain of Pneumolysin (PLY) (Q04IN8 2-471 limits assumed): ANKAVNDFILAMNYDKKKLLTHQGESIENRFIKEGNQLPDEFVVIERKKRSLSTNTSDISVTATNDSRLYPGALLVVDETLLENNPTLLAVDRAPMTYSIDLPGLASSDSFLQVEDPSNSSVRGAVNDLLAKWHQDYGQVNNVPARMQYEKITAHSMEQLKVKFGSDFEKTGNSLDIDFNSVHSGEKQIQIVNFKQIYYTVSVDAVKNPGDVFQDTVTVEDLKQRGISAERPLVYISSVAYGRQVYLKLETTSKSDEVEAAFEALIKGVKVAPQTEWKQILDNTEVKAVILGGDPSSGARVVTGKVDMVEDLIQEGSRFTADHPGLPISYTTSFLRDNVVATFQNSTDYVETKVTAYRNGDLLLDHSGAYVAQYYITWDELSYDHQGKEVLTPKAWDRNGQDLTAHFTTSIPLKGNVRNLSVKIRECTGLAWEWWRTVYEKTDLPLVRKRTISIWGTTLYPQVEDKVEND

Usually IC50 stands for the point on the concentration scale where inhibition reaches its midpoint. In turn, `COc1c(O)cc(O)c2c(=O)cc(-c3ccccc3)oc12` [wogonin] had an IC50 of 186 µM.
